# Measurements reported in ChEMBL document CHEMBL4715697, “Synthesis and biological activity of benzamide DNA minor groove binders” (2016).
# How the values were obtained:
# Type in all cases: functional
# HL-60(TB) [1] = assay: Growth inhibition of human HL-60(TB) cells assessed as cell growth at 0.01 uM incubated for 48 hrs by sulforhodamine B assay relative to control; conditions: read-out: Activity
# NCI-H23 [2] = assay: Growth inhibition of human NCI-H23 cells assessed as cell growth at 0.01 uM incubated for 48 hrs by sulforhodamine B assay relative to control; conditions: read-out: Activity
# SNB-19 [3] = assay: Growth inhibition of human SNB-19 cells assessed as cell growth at 0.01 uM incubated for 48 hrs by sulforhodamine B assay relative to control; conditions: read-out: Activity
# U-251 = assay: Growth inhibition of human U-251 cells assessed as cell growth at 0.01 uM incubated for 48 hrs by sulforhodamine B assay relative to control; conditions: read-out: Activity
# LOX IMVI [4] = assay: Growth inhibition of human LOX IMVI cells assessed as cell growth at 0.01 uM incubated for 48 hrs by sulforhodamine B assay relative to control; conditions: read-out: Activity
# IGROV-1 = assay: Growth inhibition of human IGROV-1 cells assessed as cell growth at 0.01 uM incubated for 48 hrs by sulforhodamine B assay relative to control; conditions: read-out: Activity
# A498 = assay: Growth inhibition of human A498 cells assessed as cell growth at 0.01 uM incubated for 48 hrs by sulforhodamine B assay relative to control; conditions: read-out: Activity
# UO-31 [5] = assay: Growth inhibition of human UO-31 cells assessed as cell growth at 0.01 uM incubated for 48 hrs by sulforhodamine B assay relative to control; conditions: read-out: Activity
# SR [6] = assay: Growth inhibition of human SR cells assessed as cell growth at 0.1 uM incubated for 48 hrs by sulforhodamine B assay relative to control; conditions: read-out: Activity
# NCI-H23 [7] = assay: Growth inhibition of human NCI-H23 cells assessed as cell growth at 0.1 uM incubated for 48 hrs by sulforhodamine B assay relative to control; conditions: read-out: Activity
# HCT-15 [8] = assay: Growth inhibition of human HCT-15 cells assessed as cell growth at 0.1 uM incubated for 48 hrs by sulforhodamine B assay relative to control; conditions: read-out: Activity
# LOX IMVI [9] = assay: Growth inhibition of human LOX IMVI cells assessed as cell growth at 0.1 uM incubated for 48 hrs by sulforhodamine B assay relative to control; conditions: read-out: Activity
# SK-OV-3 = assay: Growth inhibition of human SK-OV-3 cells assessed as cell growth at 0.1 uM incubated for 48 hrs by sulforhodamine B assay relative to control; conditions: read-out: Activity
# HL-60(TB) [10] = assay: Growth inhibition of human HL-60(TB) cells assessed as cell growth at 1 uM incubated for 48 hrs by sulforhodamine B assay relative to control; conditions: read-out: Activity
# SR [11] = assay: Growth inhibition of human SR cells assessed as cell growth at 1 uM incubated for 48 hrs by sulforhodamine B assay relative to control; conditions: read-out: Activity
# EKVX = assay: Growth inhibition of human EKVX cells assessed as cell growth at 1 uM incubated for 48 hrs by sulforhodamine B assay relative to control; conditions: read-out: Activity
# NCI-H23 [12] = assay: Growth inhibition of human NCI-H23 cells assessed as cell growth at 1 uM incubated for 48 hrs by sulforhodamine B assay relative to control; conditions: read-out: Activity
# NCI-H460 = assay: Growth inhibition of human NCI-H460 cells assessed as cell growth at 1 uM incubated for 48 hrs by sulforhodamine B assay relative to control; conditions: read-out: Activity
# NCI-H522 = assay: Growth inhibition of human NCI-H522 cells assessed as cell growth at 1 uM incubated for 48 hrs by sulforhodamine B assay relative to control; conditions: read-out: Activity
# HCT-15 [13] = assay: Growth inhibition of human HCT-15 cells assessed as cell growth at 1 uM incubated for 48 hrs by sulforhodamine B assay relative to control; conditions: read-out: Activity
# HT-29 = assay: Growth inhibition of human HT-29 cells assessed as cell growth at 1 uM incubated for 48 hrs by sulforhodamine B assay relative to control; conditions: read-out: Activity
# SNB-19 [14] = assay: Growth inhibition of human SNB-19 cells assessed as cell growth at 1 uM incubated for 48 hrs by sulforhodamine B assay relative to control; conditions: read-out: Activity
# LOX IMVI [15] = assay: Growth inhibition of human LOX IMVI cells assessed as cell growth at 1 uM incubated for 48 hrs by sulforhodamine B assay relative to control; conditions: read-out: Activity
# M14 = assay: Growth inhibition of human M14 cells assessed as cell growth at 1 uM incubated for 48 hrs by sulforhodamine B assay relative to control; conditions: read-out: Activity
# CAKI-1 = assay: Growth inhibition of human CAKI-1 cells assessed as cell growth at 1 uM incubated for 48 hrs by sulforhodamine B assay relative to control; conditions: read-out: Activity
# Hs-578T [16] = assay: Growth inhibition of human Hs-578T cells assessed as cell growth at 1 uM incubated for 48 hrs by sulforhodamine B assay relative to control; conditions: read-out: Activity
# T47D = assay: Growth inhibition of human T47D cells assessed as cell growth at 1 uM incubated for 48 hrs by sulforhodamine B assay relative to control; conditions: read-out: Activity
# SNB-75 = assay: Growth inhibition of human SNB-75 cells assessed as cell growth at 100 uM incubated for 48 hrs by sulforhodamine B assay relative to control; conditions: read-out: Activity
# SK-MEL-28 = assay: Growth inhibition of human SK-MEL-28 cells assessed as cell growth at 100 uM incubated for 48 hrs by sulforhodamine B assay relative to control; conditions: read-out: Activity
# SK-MEL-5 = assay: Growth inhibition of human SK-MEL-5 cells assessed as cell growth at 100 uM incubated for 48 hrs by sulforhodamine B assay relative to control; conditions: read-out: Activity
# OVCAR-5 = assay: Growth inhibition of human OVCAR-5 cells assessed as cell growth at 100 uM incubated for 48 hrs by sulforhodamine B assay relative to control; conditions: read-out: Activity
# Hs-578T [17] = assay: Growth inhibition of human Hs-578T cells assessed as cell growth at 100 uM incubated for 48 hrs by sulforhodamine B assay relative to control; conditions: read-out: Activity
# BT-549 = assay: Growth inhibition of human BT-549 cells assessed as cell growth at 100 uM incubated for 48 hrs by sulforhodamine B assay relative to control; conditions: read-out: Activity
# K562 = assay: Growth inhibition of human K562 cells incubated for 48 hrs by sulforhodamine B assay
# MDA-MB-435 = assay: Growth inhibition of human MDA-MB-435 cells incubated for 48 hrs by sulforhodamine B assay
# SK-MEL-2 = assay: Growth inhibition of human SK-MEL-2 cells incubated for 48 hrs by sulforhodamine B assay
# UO-31 [18] = assay: Growth inhibition of human UO-31 cells incubated for 48 hrs by sulforhodamine B assay
# [19] = read-out: LC50 (the source's name)
# [20] = read-out: pLC50 (the source's name) (converted)
smiles,measurement,setting,value
CC(=O)Nc1cc(CO[Si](C)(C)C(C)(C)C)cc(NC(=O)c2ccc(C(=O)Nc3cccc(NC(=O)CCCN(C)C)c3)cc2)c1,growth at 0.01 µM,HL-60(TB) [1],102%
same,growth at 0.01 µM,NCI-H23 [2],101%
same,growth at 0.01 µM,SNB-19 [3],96%
same,growth at 0.01 µM,U-251,101%
same,growth at 0.01 µM,LOX IMVI [4],101%
same,growth at 0.01 µM,IGROV-1,99%
same,growth at 0.01 µM,A498,70%
same,growth at 0.01 µM,UO-31 [5],83%
same,growth at 0.1 µM,SR [6],103%
same,growth at 0.1 µM,NCI-H23 [7],98%
same,growth at 0.1 µM,HCT-15 [8],91%
same,growth at 0.1 µM,LOX IMVI [9],94%
same,growth at 0.1 µM,SK-OV-3,98%
same,growth at 1 µM,HL-60(TB) [10],86%
same,growth at 1 µM,SR [11],94%
same,growth at 1 µM,EKVX,89%
same,growth at 1 µM,NCI-H23 [12],96%
same,growth at 1 µM,NCI-H460,99%
same,growth at 1 µM,NCI-H522,86%
same,growth at 1 µM,HCT-15 [13],87%
same,growth at 1 µM,HT-29,113%
same,growth at 1 µM,SNB-19 [14],101%
same,growth at 1 µM,LOX IMVI [15],94%
same,growth at 1 µM,M14,101%
same,growth at 1 µM,CAKI-1,73%
same,growth at 1 µM,Hs-578T [16],117%
same,growth at 1 µM,T47D,107%
same,growth at 100 µM,SNB-75,50%
same,growth at 100 µM,SK-MEL-28,74%
same,growth at 100 µM,SK-MEL-5,73%
same,growth at 100 µM,OVCAR-5,79%
same,growth at 100 µM,Hs-578T [17],89%
same,growth at 100 µM,BT-549,86%
same,GI50,K562; read-out: GI50,> 75 µM
same,CC50,K562; [19],> 75 µM
same,TGI,K562; read-out: TGI,> 75 µM
same,GI50,K562; read-out: pGI50 (converted),> 75.9 µM
same,CC50,K562; [20],> 75.9 µM
same,TGI,K562; read-out: pTGI,> 75.9 µM
same,GI50,MDA-MB-435; read-out: GI50,> 75 µM
same,LC50 (50% lethal concentration),MDA-MB-435; read-out: LC50,> 75 µM
same,TGI,MDA-MB-435; read-out: TGI,> 75 µM
same,GI50,MDA-MB-435; read-out: pGI50 (converted),> 75.9 µM
same,LC50 (50% lethal concentration),MDA-MB-435; read-out: pLC50 (converted),> 75.9 µM
same,TGI,MDA-MB-435; read-out: pTGI,> 75.9 µM
same,GI50,SK-MEL-2; read-out: GI50,> 75 µM
same,CC50,SK-MEL-2; [19],> 75 µM
same,TGI,SK-MEL-2; read-out: TGI,> 75 µM
same,GI50,SK-MEL-2; read-out: pGI50 (converted),> 75.9 µM
same,CC50,SK-MEL-2; [20],> 75.9 µM
same,TGI,SK-MEL-2; read-out: pTGI,> 75.9 µM
same,GI50,UO-31 [18]; read-out: GI50,> 75 µM
same,CC50,UO-31 [18]; [19],> 75 µM
same,TGI,UO-31 [18]; read-out: TGI,> 75 µM
same,GI50,UO-31 [18]; read-out: pGI50 (converted),> 75.9 µM
same,CC50,UO-31 [18]; [20],> 75.9 µM
same,TGI,UO-31 [18]; read-out: pTGI,> 75.9 µM
